# From ChEMBL document CHEMBL4342498, “Design and Discovery of an Orally Efficacious Spiroindolinone-Based Tankyrase Inhibitor for the Treatment of Colon Cancer” (J Med Chem, 2020)
# Experiments:
# [1] = Permeability of the compound measured after 4 hrs by PAMPA; format: ADME; details: read-out: permeability
# [2] = Stability in mouse liver microsomes assessed as parent compound remaining at 1 uM measured after 30 mins in presence of NADPH by LC-MS/MS analysis; format: ADME, Microsome; details: read-out: Stability
# [3] = Stability in rat liver microsomes assessed as parent compound remaining at 1 uM measured after 30 mins in presence of NADPH by LC-MS/MS analysis; format: ADME, Microsome; details: read-out: Stability
# [4] = Protein binding in mouse plasma assessed as unbound fraction at 1 uM measured after 24 hrs by LC-MS/MS analysis; format: ADME, cell-free
# MDR1 = assay: Efflux ratio of permeability across basolateral to apical side over apical to basolateral side in MDCK2-MDR1 cells; format: ADME, cell-based, Canis lupus familiaris; details: dog, MDCK-MDR1
# [5] = Efflux ratio of permeability across basolateral to apical side over apical to basolateral side in MDCK2 cells; format: ADME, cell-based, Canis lupus familiaris, MDCK-II; details: dog, mdck
# [6] = Net efflux ratio of permeability across basolateral to apical side over apical to basolateral side in MDCK2-MDR1 cells to MDCK2 cells; format: ADME, cell-based, Canis lupus familiaris; details: dog, mdck
# [7] = Tmax in ICR mouse at 50 mg/kg, ip; format: ADME, organism-based; details: in vivo
# [8] = Half life in ICR mouse at 50 mg/kg, ip; format: ADME, organism-based; details: in vivo
# [9] = AUC (infinity) in ICR mouse at 50 mg/kg, ip; format: ADME, organism-based; parameters: dose 50 mg/kg, route intraperitoneal, time infinity; details: in vivo
# [10] = Tmax in ICR mouse at 50 mg/kg, po; format: ADME, organism-based; details: in vivo
# [11] = AUC (infinity) in ICR mouse at 50 mg/kg, po; format: ADME, organism-based; parameters: dose 50 mg/kg, time infinity, route oral; details: in vivo
# Tankyrase 1/2 = target: T1, Tankyrase 1/2 (Homo sapiens, UniProt Q9H2K2+O95271); details: hek293
# T1 sequence (Q9H2K2 whole entry): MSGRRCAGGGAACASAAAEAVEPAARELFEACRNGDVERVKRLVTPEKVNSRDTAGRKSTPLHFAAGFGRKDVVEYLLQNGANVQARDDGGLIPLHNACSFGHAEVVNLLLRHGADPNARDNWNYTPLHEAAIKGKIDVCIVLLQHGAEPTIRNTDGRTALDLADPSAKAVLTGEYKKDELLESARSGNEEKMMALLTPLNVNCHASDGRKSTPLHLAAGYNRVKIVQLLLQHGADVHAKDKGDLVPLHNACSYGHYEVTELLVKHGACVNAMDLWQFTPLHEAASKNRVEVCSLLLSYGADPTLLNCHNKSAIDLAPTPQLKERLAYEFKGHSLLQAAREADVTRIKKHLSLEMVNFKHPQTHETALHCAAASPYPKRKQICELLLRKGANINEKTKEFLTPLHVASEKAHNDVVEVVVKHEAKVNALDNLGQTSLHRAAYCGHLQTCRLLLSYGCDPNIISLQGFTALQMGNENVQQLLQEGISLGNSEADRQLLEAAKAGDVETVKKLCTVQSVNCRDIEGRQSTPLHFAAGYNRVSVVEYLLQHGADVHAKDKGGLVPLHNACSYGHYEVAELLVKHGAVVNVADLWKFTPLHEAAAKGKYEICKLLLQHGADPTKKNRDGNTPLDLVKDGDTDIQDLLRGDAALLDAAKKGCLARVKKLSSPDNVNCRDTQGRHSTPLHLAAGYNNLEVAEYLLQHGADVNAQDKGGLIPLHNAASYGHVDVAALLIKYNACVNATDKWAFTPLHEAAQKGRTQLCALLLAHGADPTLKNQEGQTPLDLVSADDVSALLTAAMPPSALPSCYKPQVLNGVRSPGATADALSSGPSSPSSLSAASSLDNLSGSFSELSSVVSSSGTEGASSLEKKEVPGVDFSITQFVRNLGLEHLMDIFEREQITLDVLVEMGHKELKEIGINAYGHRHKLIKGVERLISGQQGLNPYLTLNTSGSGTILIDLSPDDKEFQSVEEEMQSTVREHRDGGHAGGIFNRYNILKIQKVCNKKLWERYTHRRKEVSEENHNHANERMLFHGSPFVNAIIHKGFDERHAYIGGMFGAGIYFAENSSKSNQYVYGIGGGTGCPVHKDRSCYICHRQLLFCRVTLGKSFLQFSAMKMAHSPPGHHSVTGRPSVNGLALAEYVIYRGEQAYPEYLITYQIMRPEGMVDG
# T1 sequence (O95271 whole entry): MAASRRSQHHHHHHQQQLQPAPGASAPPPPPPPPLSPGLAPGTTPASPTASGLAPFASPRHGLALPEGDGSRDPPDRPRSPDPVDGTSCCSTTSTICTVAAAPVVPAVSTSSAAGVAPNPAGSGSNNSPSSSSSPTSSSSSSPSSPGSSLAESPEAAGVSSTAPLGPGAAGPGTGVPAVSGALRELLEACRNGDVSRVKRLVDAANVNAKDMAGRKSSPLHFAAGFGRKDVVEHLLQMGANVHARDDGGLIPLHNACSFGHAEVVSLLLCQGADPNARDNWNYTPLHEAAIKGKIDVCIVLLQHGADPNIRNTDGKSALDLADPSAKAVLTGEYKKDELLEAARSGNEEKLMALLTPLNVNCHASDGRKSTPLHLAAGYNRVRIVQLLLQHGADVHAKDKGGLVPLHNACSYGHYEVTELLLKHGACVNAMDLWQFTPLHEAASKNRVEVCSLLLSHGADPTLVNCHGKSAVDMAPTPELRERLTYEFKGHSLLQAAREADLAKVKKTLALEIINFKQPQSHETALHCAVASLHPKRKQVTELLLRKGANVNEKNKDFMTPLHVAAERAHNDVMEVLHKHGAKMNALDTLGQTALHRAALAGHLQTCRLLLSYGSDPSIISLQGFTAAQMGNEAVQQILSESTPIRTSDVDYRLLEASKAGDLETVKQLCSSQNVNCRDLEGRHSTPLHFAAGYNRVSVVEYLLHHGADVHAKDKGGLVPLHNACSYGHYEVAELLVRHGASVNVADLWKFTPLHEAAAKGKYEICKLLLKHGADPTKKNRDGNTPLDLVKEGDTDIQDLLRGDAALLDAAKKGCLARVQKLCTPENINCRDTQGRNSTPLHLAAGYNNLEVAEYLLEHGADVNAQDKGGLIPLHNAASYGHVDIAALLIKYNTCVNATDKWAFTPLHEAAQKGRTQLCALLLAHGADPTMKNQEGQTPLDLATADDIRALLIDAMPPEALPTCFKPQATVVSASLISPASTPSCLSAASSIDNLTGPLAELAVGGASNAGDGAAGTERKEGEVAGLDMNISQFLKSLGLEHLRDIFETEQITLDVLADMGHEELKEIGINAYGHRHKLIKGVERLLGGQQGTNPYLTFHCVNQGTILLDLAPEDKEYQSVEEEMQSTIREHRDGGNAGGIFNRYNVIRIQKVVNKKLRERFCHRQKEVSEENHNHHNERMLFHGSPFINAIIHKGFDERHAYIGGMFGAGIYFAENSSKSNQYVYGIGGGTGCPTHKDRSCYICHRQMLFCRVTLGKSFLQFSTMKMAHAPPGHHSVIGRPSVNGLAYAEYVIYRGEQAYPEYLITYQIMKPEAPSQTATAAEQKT
# Description: Inhibition of TNKS/TNKS2 (unknown origin) expressed in HEK293 cells assessed as reduction in Wnt-signaling measured after 24 hrs by TCF-luciferase reporter gene assay
# physchem = details: phosphate buffered saline, pH 7.4
Papp at 4 h [1] [×10⁻⁶ cm/s],"remaining at 0.5 h, 1 µM [2] [%]","remaining at 0.5 h, 1 µM [3] [%]","fraction unbound at 24 h, 1 µM [4]",efflux ratio (MDR1),efflux ratio [5],Ratio [6],Tmax [7] [h],half-life [8] [h],AUC(0-inf) [9] [µM·h],Tmax [10] [h],AUC(0-inf) [11] [µM·h],IC50 (Tankyrase 1/2) [nM],"solubility at 1 h, 200 µM (physchem) [µg/mL]",SMILES
12.8,54.9,80.2,0.019,13.2,3.1,4.3,0.5,2.5,207,0.25,77,0.9,94.5,CN1CCN(c2cc(F)c3c(c2)N(C)C(=O)C32CCN(c3nc4c(c(=O)[nH]3)CCCN4C)CC2)CC1
12.4,49.7,57.3,0.006,1,0.9,1.1,1,1.9,607,1,594,0.3,34.1,C[C@@H]1CN(c2cc(F)c3c(c2)N(C)C(=O)C32CCN(c3nc4c(c(=O)[nH]3)CCCN4C)CC2)C[C@H](C)O1
